Starred links: 1 amine or outer side, 2 acyl side, 3 side chain; linkers in the order of their positions; H or OH if unused. Positions of bridges follow the written chain, without caps; N, C: chain ends. Residues, ends and D or L forms follow the SMILES beside them. Chains are numbered I, II in the order given. X2 = C[C@@H]1Cc2ccc3ccccc3c2C1=C1c2cc(C#CCCn3cc(C(=O)[*:1])nn3)ccc2Sc2ccc(C#CCCn3cc(C(=O)[*:2])nn3)cc21
Columns and labels:
PC-3 cells [1] = assay: 24 hours incubation without UV: proliferation and apoptosis (Annexin V, Image Cytometry); type: cell-based, human
Experimental: When PC-3 cells are loaded at 0.5 or 1.0 μM with 9 or 10, washed three times (Method B) or unwashed (Method A) after 24 hours of incubation, the cells visually appear without major signs of toxicity. However, the cells which had been incubated with 9 or 10 over 24 hours were not dividing as prolifically. The cultures appear to be populated ˜25% less in the presence of 9 and 20% of the cells in 10 compared to control untreated cells (FIGS. 12A-E).
In order to further investigate this point, these cells were collected via gentle centrifugation and re-suspended in fresh PBS and analyzed by Image Cytometry. Using Annexin V, these cells were all confirmed to show signs of apoptosis at 93±5%. This is in contrast to the remaining coverslip surface-bound cells that appear healthy.
These latter types of non-apoptotic cells show identical percentage of necrosis acceleration upon subsequent UV-activation of the cell-surface bound nanomachines compared to their shorter incubation time analogues. Thus, it appears that, upon 24 hour incubation, a noticeable amount of cells have nanomachines 9 and 10 either bound to vital cell membrane channels or transport proteins or they are internalized, subsequently shutting down some natural homeostatic mechanisms that leads to programmed cell death (FIGS. 12A-E). Furthermore, this is not the case with shorter incubation times regardless of whether Method A or B is used.

PC-3 cells [2] = assay: Two-photon near-infra red activation, PI dye entry, PC-3; type: cell-based, human; details: PC-3, 1 μM, PI 200 nM
Experimental: Two-photon microscopy studies of NIH 3T3 cells were executed on a Nikon E600 upright confocal microscope coupled to a tuneable (710-950 nm Coherent MaiTai) multiphoton source operating at (20%) 240 mW power using a 166 lps scan speed and 128×128 pixel frame resolution for MP-illumination. Images (512×512 pixel, 166 lps) were recorded using a 543 nm (1 mW HeNe) laser combined with a 560 nm long-pass filter to record PI (200 nM) fluorescence and follow the onset of induced necrosis.
Two photon live cell microscopy studies were also executed on a Nikon E600 upright confocal microscope coupled to a tuneable (710-950 nm Coherent MaiTai) multiphoton source operating at (19.8%) 240 mW power at 720 nm using 166 lines/sec scan speed and 128×128 pixel frame resolution for MP-illumination. An oil immersion Nikon IR objective (×60/1.4 NA) was used. Images (512×512 pixel, 166 l/s) were recorded using a 543 nm (1 mW HeNe) laser combined with a 570 nm long-pass filter to record PI dyes (200 nM). Fluorescence was measured as 2 frame averaged images in order to follow the onset of induced necrosis. Necrosis times have been assigned to detectable PI signals in the nucleolus.

NIH 3T3 cells = assay: UV-activated nanomechanical necrosis, live cell confocal microscopy, NIH 3T3; type: cell-based, mouse; details: for Time of Full Necrosis / Time of Initial Necrosis / % acceleration for full necrosis: 355 nm UV; for % acceleration for full necrosis: versus UV upon blank cells
Experimental: (§1) Following the synthetic bilipid vesicle experiments, nanomechanical action upon live cells was studied using confocal microscopy aided by a super-resolution technique called Phase Modulation Nanoscopy. Applicants used two experimental methods. In the first method (Method A), the molecular motors were loaded into the cell media and the imaging was initiated within 5 minutes to 24 hours. In the second method, (Method B), the molecular motors were loaded into the cell media, incubated for 30 minutes to 24 hours, and then washed three times with fresh molecular motor-free media before imaging. […]
(§2) Microscopy cells were seeded in untreated iBibi 100 μL live cell channels and allowed to grow to 40% to 60% confluence, at 37° C. in 5% CO2. At this stage, the medium was replaced and cells were treated with the studied nanomachines and co-stains as appropriate, with 0.1% DMSO (as detailed above) present in the final imaging medium. For live cell imaging, DMEM/F12 media (10% FBS) lacking phenol red was used from this point onwards. Following incubation, where Method B was used, the channels were washed with live cell imaging media and imaged using a purpose build incubator housing the microscope maintaining 37° C., 5% CO2 and 10% humidity.
(§3) All live cell imaging experiments used either NIH 3T3 mouse skin fibroblast cells, PC-3 cells, a grade 3 human prostate adenocarcinoma, or Chinese hamster ovary cells (CHO). These are all well-studied cell lines with discrete morphological compositions. Each molecular machine was used as a stock solution at 0.10 to 1.00 μM with total dimethyl sulfoxide (DMSO) concentrations not exceeding 0.1% in the final cell media in order to avoid unwanted cell membrane permeabilization, the DMSO being required for solubility of the organic nanomachines. All loading experiments are carried out in a light-suppressed manner and the possibility of induced or accelerated uptake due to interaction between the molecular motors and the applied co-stain has been eliminated using a series of individual and reversed loading experiments.
(§4) All experimental imaging parameters (i.e., laser beam size, confocal pinhole size, laser intensity, line scanning speed, scanning area (field of view, FOV), and line averaging sequences) were kept constant throughout the experiments. The accuracy and errors associated with the establishment of accelerated necrosis are determined based on one dual channel imaging sequence, which takes 15 seconds in total. This imaging sequence has been carefully established using untreated live cells.
(§5) Steady state fluorescence images were recorded using a PhMoNa enhanced Leica SP5 II LSCM equipped with a HCX PL APO 63×/1.40 NA LambdaBlue Oil immersion objective. As an initial control experiment to establish the UV-induced cell toxicity threshold, while mitigating voxel exposure and ensuring sufficient laser dwell time, an imaging sequence has been established to monitor cell morphological and physiological changes as a function of time. All experiments used cell-line-determined culture medium containing 0.1% DMSO.
(§6) The applied 100 Hz detection sequence was based on a bidirectional dual-channel continuous scanning method where a minimalistic non-damaging visible laser light (458 nm, 0.2 mW) is used in conjunction with the above detailed UV exposure. This is set as a 2 line/scan accumulation parallel acquisition sequence that is recorded as a function of time. Studied channels correspond to transmission images and UV-induced mitochondrial auto-fluorescence detected at 460 to 550 nm. Applicants further confirmed that the effectiveness of monitoring the UV-activated nanomechanical action on live cells using a conventional CW mercury-arc excitation source equipped with an epi-fluorescence setup consisting of a Zeiss Axiovert 200M inverted microscope, as discussed in FIGS. 18A-C. […]

CHO cells = assay: UV-activated nanomechanical necrosis, live cell confocal microscopy, CHO; type: cell-based, Chinese hamster; details: 355 nm UV; for % acceleration for full necrosis: versus UV upon blank cells
Experimental: as §1, §2, §3, §4, §5, §6

[3] = NIH 3T3, Method B (washed three times)

## CC(C)[C@H](NC(=O)[C@H](CCCNC(=N)N)NC(=O)[C@@H](NC(=O)[C@H](CC(N)=O)NC(=O)[C@H](CO)NC(=O)c1cn(CCC#Cc2ccc3c(c2)C(=C2c4c(ccc5ccccc45)C[C@H]2C)c2cc(C#CCCn4cc(C(=O)N[C@@H](CO)C(=O)N[C@@H](CC(N)=O)C(=O)N[C@H](C(=O)N[C@@H](CCCNC(=N)N)C(=O)N[C@H](C(=O)N[C@@H](C)C(=O)N5CCC[C@H]5C(=O)O)C(C)C)[C@@H](C)O)nn4)ccc2S3)nn1)[C@@H](C)O)C(=O)N[C@@H](C)C(=O)N1CCC[C@H]1C(=O)O [Compound 9] (I: SNTRVAP-OH / II: SNTRVAP-OH; linker I:N-II:N via X2)
PC-3 cells [1]; PC-3, 0.5 or 1.0 μM, 24 hours of incubation, no UV
  cultures populated less compared to control untreated cells: ~25%
PC-3 cells [1]; PC-3, 24 hours incubation, cells collected from culture media
  mobilized cells showing signs of apoptosis (Annexin V): 93±5%
PC-3 cells [2]
  PI dye entry upon two-photon near-infra red illumination (in words): resulting in Propidium Iodide (PI) dyes entering
NIH 3T3 cells; NIH 3T3, Method A (no washing)
  Time of Full Necrosis: 570 s
  Time of Initial Necrosis: 300 s
NIH 3T3 cells; NIH 3T3, Method A
  % acceleration for full necrosis: 5%
NIH 3T3 cells; [3]
  Time of Full Necrosis: 600 s
  Time of Initial Necrosis: 300 s
NIH 3T3 cells; NIH 3T3, Method B
  % acceleration for full necrosis: 0%
NIH 3T3 cells; NIH 3T3, incubated 24 hours
  UV-accelerated nanomechanical necrosis after 24 hours incubation (in words): no change in rates
CHO cells; Method A (no washing)
  Time of Full Necrosis: 585 s
  Time of Initial Necrosis: 300 s
CHO cells; Method A
  % acceleration for full necrosis: 2.5%
CHO cells; Method B (washed three times)
  Time of Full Necrosis: 570 s
  Time of Initial Necrosis: 285 s
CHO cells; Method B
  % acceleration for full necrosis: 5%

From patent US11565003B2, “Mechanical opening of lipid bilayers by molecular nanomachines” (William Marsh Rice University, priority 2016, dated 2023)
